Assay results published in the supplement of paper PMC10290057.
Structures can show the parent of a compound that is named as a salt.

Tests used:
HCT116 [1] = experiment: efficacy (fitted maximal change in viability relative to DMSO control); higher = less cytotoxic (negative = loss of viability); conditions: 48 h
HCT116 [2] = experiment: AC50 cell viability (CellTiter-Glo); higher = less potent; conditions: 48 h
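Throughout, for AC50 cell viability (CellTiter-Glo): HCT116 colorectal carcinoma cells screened at five concentrations per compound, luminescent viability scaled between DMSO wells and empty wells on each plate, curves fitted per compound.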
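Throughout, for efficacy (fitted maximal change in viability relative to DMSO control): Luminescence-based viability readout, five doses per compound, normalized against on-plate DMSO and empty-well controls, followed by dose-response curve fitting for every drug.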

| SMILES | efficacy (HCT116 [1]) | AC50 cell viability (HCT116 [2]) |
| --- | --- | --- |
| COC1=C(CN(C)C)C=C(OC)C(=C1)C/2=C/N(C)C(=O)C3=C2C=CN=C3 [BI-9564] | -71.5% | 14.8 µM |
| CCCCCCOC(=O)/N=C(/N)c1ccc(NCc2nc3cc(C(=O)N(CCC(=O)OCC)c4ccccn4)ccc3n2C)cc1 [BIBR-1048] | -59.4% | 18.6 µM |
| O=C1Nc2cc(Br)ccc2/C1=C1/Nc2ccccc2/C1=N\O [BIO] | -102% | 10.5 µM |
| Nc1cc(C(F)(F)F)c(-c2cc(N3CCOCC3)nc(N3CCOCC3)n2)cn1 [BKM-120] | -71.8% | 1.66 µM |
| CNC(=O)c1cc(Oc2ccc3nc(N[C@@H]4CCCC[C@H]4O)sc3c2)ccn1 [BLZ-945] | -41.8% | 20.9 µM |
| NC(=O)c1ccc2[nH]c(-c3ccc(Oc4ccc(Cl)cc4)cc3)nc2c1 [BML-277] | -67.3% | 18.6 µM |
| FC1=CC=C(C=C1)N2/C=C\C=C(C(=O)NC3=CC=C(OC4=C5C=C[NH]C5=NC=C4)C(=C3)F)/C2=O [BMS-2] | -37.8% | 18.6 µM |
| O=C(Nc1ncc(-c2cc(C(F)F)nn2-c2c(Cl)cccc2Cl)s1)C1CC1 [BMS-3] | -68% | 0.833 µM |
| CC(C)C(=O)Nc1ncc(-c2cc(C(F)F)nn2-c2c(Cl)cccc2Cl)s1 [BMS-5] | -80.8% | 18.6 µM |
| COc1nc(OCc2cccc(-c3ccccc3)c2C)ccc1CNCCNC(C)=O [BMS-202] | -89.9% | 14.8 µM |
| COC(=O)Nc1cc(Nc2cc(NC3CC3)c3ncc(C#N)n3n2)c(Cl)c(N2CCN(C)CC2)c1 [BMS-595] | -103% | 0.525 µM |
| CC(C)c1cnn2c(NCc3ccccc3)cc(N[C@@H](CO)[C@H](O)CO)nc12 [BS-194] | -59.1% | 0.0833 µM |
| C[C@@H]1CN(Cc2ccc(F)cc2)CCN1C(=O)COc1ccc(Cl)cc1NC(N)=O [BX-471] | -59.8% | 0.209 µM |
| Cc1nc(NC(=O)N2CCCC2C(N)=O)sc1-c1ccnc(C(C)(C)C(F)(F)F)c1 (stereo unspecified) [BYL-719] | -87.4% | 3.72 µM |
| Cc1ccc(NC(=O)c2ccc(CN3CC[C@H](N(C)C)C3)c(C(F)(F)F)c2)cc1Nc1nccc(-c2cncnc2)n1 [Bafetinib (INNO-406)] | -131% | 7.23 µM |
| CO/C1=C/C(C)=C\[C@@H](C)[C@@H](O)[C@@H](C)C/C(C)=C\C=C/[C@H](OC)[C@@H]([C@@H](C)[C@@H](O)[C@H](C)[C@@]2(O)C[C@@H](O)[C@H](C)[C@@H](C(C)C)O2)OC1=O [Bafilomycin A1] | -81.9% | 0.035 µM |
| C[N+](C)([O-])CCNc1ccc(NCC[N+](C)(C)[O-])c2c1C(=O)c1c(O)ccc(O)c1C2=O [Banoxantrone] | -45.2% | 2.09 µM |
| COC(=O)[C@]12CCC(C)(C)C[C@H]1[C@H]3C(=O)\C=C\4[C@@](C)(CC[C@H]5C(C)(C)C(=O)\C(=C/[C@]45C)C#N)[C@]3(C)CC2 [Bardoxolone methyl] | -91.9% | 7.42 µM |
| CC[S+](=O)([O-])N1CC(CC#N)(n2cc(-c3ncnc4[nH]ccc34)cn2)C1 [Baricitinib] | -91.6% | 29.5 µM |
| O=C1Nc2nc(-c3c(O)cccc3OCC3CC3)cc([C@@H]3CCCNC3)c2CO1 [Bay-65-1942 hydrochloride] | -90.5% | 9.34 µM |
| CC(C)(C)NC(=O)Nc1cccc(Nc2ncc(F)c(NC(C)(C)CO)n2)c1 [Bayer-18] | -54.8% | 18.6 µM |
| Cc1c(-c2ccc(O)cc2)n(Cc2ccc(OCCN3CCCCCC3)cc2)c2ccc(O)cc12 [Bazedoxifene] | -101% | 20.9 µM |
| O=C(/C=C/c1cccc([S+](=O)([O-])Nc2ccccc2)c1)NO [Belinostat] | -87.7% | 0.525 µM |
